# Source: patent publication US20260193238A1, “PHARMACEUTICAL COMPOUNDS AS PARP7 AND/OR PARP1 INHIBITORS” (Duke Street Bio Limited, priority 2022, published 2026)
# Biological target: PARP1 (Homo sapiens, UniProt P09874)
# Test: PARP1 biochemical DELFIA assay (auto-PARylation)
# Conditions: Table 1
# PARP1, sequence (P09874 whole entry): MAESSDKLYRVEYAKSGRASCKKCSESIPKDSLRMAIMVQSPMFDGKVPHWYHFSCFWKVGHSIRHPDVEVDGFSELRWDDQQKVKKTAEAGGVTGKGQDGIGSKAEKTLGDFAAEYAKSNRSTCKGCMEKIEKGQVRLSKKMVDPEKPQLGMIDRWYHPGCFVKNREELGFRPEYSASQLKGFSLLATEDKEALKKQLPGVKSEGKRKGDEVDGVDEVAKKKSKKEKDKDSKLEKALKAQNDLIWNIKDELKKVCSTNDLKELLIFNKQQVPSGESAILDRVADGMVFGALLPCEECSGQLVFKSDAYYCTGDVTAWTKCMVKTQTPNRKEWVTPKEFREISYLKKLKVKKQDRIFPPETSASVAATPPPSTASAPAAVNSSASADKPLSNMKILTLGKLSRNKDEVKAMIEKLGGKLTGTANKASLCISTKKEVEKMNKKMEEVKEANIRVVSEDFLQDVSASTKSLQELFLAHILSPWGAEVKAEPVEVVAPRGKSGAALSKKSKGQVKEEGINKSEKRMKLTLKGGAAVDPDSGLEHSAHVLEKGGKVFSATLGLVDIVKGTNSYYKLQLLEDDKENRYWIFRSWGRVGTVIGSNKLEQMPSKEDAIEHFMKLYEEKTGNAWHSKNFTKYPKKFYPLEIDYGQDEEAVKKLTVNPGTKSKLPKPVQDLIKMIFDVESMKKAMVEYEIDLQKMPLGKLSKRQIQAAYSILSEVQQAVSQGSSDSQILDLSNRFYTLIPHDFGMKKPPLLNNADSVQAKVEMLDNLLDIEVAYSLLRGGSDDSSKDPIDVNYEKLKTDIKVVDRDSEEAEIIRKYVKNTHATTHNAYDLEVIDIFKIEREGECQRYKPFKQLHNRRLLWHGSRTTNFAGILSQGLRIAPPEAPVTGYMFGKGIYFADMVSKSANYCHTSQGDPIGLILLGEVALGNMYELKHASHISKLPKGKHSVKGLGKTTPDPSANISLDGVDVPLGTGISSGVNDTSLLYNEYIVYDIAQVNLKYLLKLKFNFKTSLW
row,IC50,SMILES
1,10 to 100 nM,"O=C(CCN1CCCC(c2cc(C(F)(F)F)c(=O)[nH]n2)C1)N1CCN(c2ncc(C(F)(F)F)cn2)CC1 (single isomer, unassigned) [Compound 1b, 6-(1-(3-oxo-3-(4-(5-(trifluoromethyl)pyrimidin-2-yl)piperazin-1-yl)propyl)piperidin-3-yl)-4-(trifluoromethyl)pyridazin-3(2H)-one]"
2,100 to 1000 nM,O=C(CCN1CCCC(c2cc(C(F)(F)F)c(=O)[nH]n2)C1)N1CCN(c2ncc(F)cn2)CC1 (racemic) [Compound 17rac]
3,> 10000 nM,"O=C(CN1CCN(c2ncc(C(F)(F)F)cn2)CC1)N1CCCC1c1cc(C(F)(F)F)c(=O)[nH]n1 (single isomer, unassigned) [Compound 32b]"

row,SMILES,IC50
1,O=C(CCN1CCCC(c2cc(C(F)(F)F)c(=O)[nH]n2)C1)N1CCN(c2cnc(C(F)(F)F)cn2)CC1 (racemic) [Compound 30rac],100 to 1000 nM

# Same assay, conditions: Table 1A
row,SMILES,IC50
1,"N#Cc1cc(C2CCCN2CC(=O)N2CCN(c3nc4cc(F)ccc4o3)CC2)n[nH]c1=O (single isomer, unassigned) [Compound 149b]",> 10000 nM
2,"CNC(=O)c1ccc(N2CCN(C(=O)CN3CCOCC3c3cc(C(F)(F)F)c(=O)[nH]n3)CC2)cn1 (single isomer, unassigned) [Compound 90b]",1000 to 10000 nM
3,"N#Cc1ccc2nc(N3CCN(C(=O)CN4CCCC4c4cc(C#N)c(=O)[nH]n4)CC3)oc2c1 (single isomer, unassigned) [Compound 145b]",> 10000 nM
4,"O=C(CN1CCCCC1c1cc(C(F)(F)F)c(=O)[nH]n1)N1CCN(c2ncc(C(F)(F)F)cn2)CC1 (single isomer, unassigned) [Compound 66b]",> 10000 nM
5,"CCc1cc(C2CCCN2CC(=O)N2CCN(c3ncc(C(F)(F)F)cn3)CC2)n[nH]c1=O (single isomer, unassigned) [Compound 40b]",1000 to 10000 nM
6,N#Cc1[nH]c(=O)c(C(F)(F)F)cc1C1CCCN1CC(=O)N1CCN(c2ncc(C(F)(F)F)cn2)CC1 (racemic) [Compound 115rac],> 10000 nM
7,"O=C(CN1Cc2ccccc2C1c1cc(C(F)(F)F)c(=O)[nH]n1)N1CCN(c2ncc(C(F)(F)F)cn2)CC1 (single isomer, unassigned) [Compound 104b, 6-(2-(2-oxo-2-(4-(5-(trifluoromethyl)pyrimidin-2-yl)piperazin-1-yl)ethyl)isoindolin-1-yl)-4-(trifluoromethyl)pyridazin-3(2H)-one]",1000 to 10000 nM
8,"O=C(CN1CCCC1c1cc(C(F)(F)F)c(=O)[nH]n1)C1CCN(c2ncc(C(F)(F)F)cn2)CC1 (single isomer, unassigned) [Compound 75b]",> 10000 nM
9,"O=C(CN1CCCC1c1cc(C(F)(F)F)c(=O)[nH]n1)N1CCN(c2ncc(OC(F)F)cn2)CC1 (single isomer, unassigned) [Compound 118b]",1000 to 10000 nM
10,"O=C(CN1CCCC1c1cc(C(F)(F)F)c(=O)[nH]n1)N1CCN(c2nc3cc(Cl)ccc3o2)CC1 (single isomer, unassigned) [Compound 99b]",1000 to 10000 nM
11,"O=C(CN1CCCC1c1c[nH]c(=O)c(C(F)(F)F)n1)N1CCN(c2ncc(C(F)(F)F)cn2)CC1 (single isomer, unassigned) [Compound 84a, 5-(1-(2-oxo-2-(4-(5-(trifluoromethyl)pyrimidin-2-yl)piperazin-1-yl)ethyl)pyrrolidin-2-yl)-3-(trifluoromethyl)pyrazin-2(1H)-one]",1000 to 10000 nM
12,"CCc1[nH]c(=O)c(C(F)(F)F)cc1C1CCCN1CC(=O)N1CCN(c2ncc(C(F)(F)F)cn2)CC1 (single isomer, unassigned) [Compound 105b]",1000 to 10000 nM
13,"CC1(C)CC(c2cc(C(F)(F)F)c(=O)[nH]n2)N(CC(=O)N2CCN(c3ncc(C(F)(F)F)cn3)CC2)C1 (single isomer, unassigned) [Compound 94b]",1000 to 10000 nM
14,"CNC(=O)c1ccc(N2CCN(C(=O)CN3CCCC3c3cc(C(F)(F)F)c(=O)[nH]n3)CC2)cn1 (single isomer, unassigned) [Compound 37b]",1000 to 10000 nM
15,"O=C(CN1CCCC1c1cc(C(F)(F)F)c(=O)[nH]n1)N1CCN(c2ncc(F)cc2F)CC1 (single isomer, unassigned) [Compound 83b]",> 10000 nM
16,"O=C(CN1CCCC1c1cc(C(F)(F)F)c(=O)[nH]n1)N1CCN(c2ccc(Cl)cn2)CC1 (single isomer, unassigned) [Compound 41b]",1000 to 10000 nM

# Continued, values first:
row,IC50,SMILES
1,100 to 1000 nM,"O=C(CN1CCCC1c1cc(Cl)c(=O)[nH]n1)N1CCN(c2ncc(C(F)(F)F)cn2)CC1 (racemic) [Compound 68rac, 4-chloro-6-(1-(2-oxo-2-(4-(5-(trifluoromethyl)pyrimidin-2-yl)piperazin-1-yl)ethyl)pyrrolidin-2-yl)pyridazin-3(2H)-one]"
2,1000 to 10000 nM,"O=C(CN1CCCC1c1cc(C(F)(F)F)c(=O)[nH]n1)N1CCN(c2ncc(F)cn2)CC1 (single isomer, unassigned) [Compound 43b]"
3,100 to 1000 nM,O=C(CCN1CCC(c2cc(C(F)(F)F)c(=O)[nH]n2)CC1)N1CCN(c2ncc(C(F)(F)F)cn2)CC1 [Compound 61]
4,10 to 100 nM,"O=C(CN1CCCC1c1cc(C(F)(F)F)c(=O)[nH]n1)N1CCN(c2ccc(OC(F)(F)F)cn2)CC1 (single isomer, unassigned) [Compound 81b]"
5,1000 to 10000 nM,"CNC(=O)c1ccc(N2CCN(C(=O)CN3CCCC3c3cc(C(F)(F)F)c(=O)[nH]n3)CC2)nc1 (single isomer, unassigned) [Compound 55a]"
6,1000 to 10000 nM,"CCc1[nH]c(=O)c(C(F)(F)F)cc1C1CCCN1CC(=O)N1CCN(c2ncc(C(F)(F)F)cn2)CC1 (single isomer, unassigned) [Compound 105a]"
7,10 to 100 nM,O=C(CCN1CCC(c2n[nH]c(=O)c3ccccc23)CC1)N1CCN(c2ncc(C(F)(F)F)cn2)CC1 [Compound 49]
8,10 to 100 nM,"O=C(CN1CCCC1c1cc(C(F)(F)F)c(=O)[nH]n1)N1CCN(c2ccc(Cl)cn2)CC1 (single isomer, unassigned) [Compound 41a]"
9,≤ 10 nM,"O=C(CN1CCCC1c1cc(C(F)(F)F)c(=O)[nH]n1)N1CCN(c2nc3ccccn3n2)CC1 (single isomer, unassigned) [Compound 117a]"
10,100 to 1000 nM,"N#Cc1ccc(N2CCN(C(=O)CN3CCCC3c3c[nH]c(=O)c(C(F)(F)F)c3)CC2)nc1 (single isomer, unassigned) [Compound 77b]"
11,100 to 1000 nM,"CNC(=O)c1cnc(N2CCN(C(=O)CN3CCCC3c3cc(C(F)(F)F)c(=O)[nH]n3)CC2)cn1 (single isomer, unassigned) [Compound 54a]"
12,≤ 10 nM,"O=C(CN1CCCC1c1cc(C(F)(F)F)c(=O)[nH]n1)N1CCN(c2nc3ccc(F)cn3n2)CC1 (single isomer, unassigned) [Compound 128a]"
13,10 to 100 nM,N#Cc1cnc(N2CCN(C(=O)CN3CCCC3c3cc(C(F)(F)F)c(=O)[nH]n3)CC2)s1 (racemic) [Compound 44rac]
14,≤ 10 nM,"N#Cc1ccc2nc(N3CCN(C(=O)CN4CCCC4c4cc(C(F)(F)F)c(=O)[nH]n4)CC3)oc2c1 (single isomer, unassigned) [Compound 96b]"
15,10 to 100 nM,"O=C(CN1CCCC1c1cc(C(F)(F)F)c(=O)[nH]n1)N1CCN(c2ccc(C3CC3)cn2)CC1 (single isomer, unassigned) [Compound 79a]"
16,10 to 100 nM,"O=C(CN1CCCC1c1cc(C(F)(F)F)c(=O)[nH]n1)N1CCN(c2ccc(C(F)F)cn2)CC1 (single isomer, unassigned) [Compound 126a]"
17,10 to 100 nM,O=C(CN1CCC(c2n[nH]c(=O)c3ccccc23)CC1)N1CCN(c2ncc(C(F)(F)F)cn2)CC1 [Compound 51]
18,100 to 1000 nM,"Cc1[nH]c(=O)c(C(F)(F)F)cc1C1CCCN1CC(=O)N1CCN(c2ncc(C(F)(F)F)cn2)CC1 (single isomer, unassigned) [Compound 102a, 6-methyl-5-(1-(2-oxo-2-(4-(5-(trifluoromethyl)pyrimidin-2-yl)piperazin-1-yl)ethyl)pyrrolidin-2-yl)-3-(trifluoromethyl)pyridin-2(1H)-one]"
19,100 to 1000 nM,"O=C(CN1CCCC1c1c[nH]c(=O)c(C(F)(F)F)c1)N1CCN(c2ncc(C(F)(F)F)cn2)CC1 (single isomer, unassigned) [Compound 60b, 5-(1-(2-oxo-2-(4-(5-(trifluoromethyl)pyrimidin-2-yl)piperazin-1-yl)ethyl)pyrrolidin-2-yl)-3-(trifluoromethyl)pyridin-2(1H)-one]"
20,100 to 1000 nM,"O=C(CN1Cc2ccccc2C1c1cc(C(F)(F)F)c(=O)[nH]n1)N1CCN(c2ncc(C(F)(F)F)cn2)CC1 (single isomer, unassigned) [Compound 104a, 6-(2-(2-oxo-2-(4-(5-(trifluoromethyl)pyrimidin-2-yl)piperazin-1-yl)ethyl)isoindolin-1-yl)-4-(trifluoromethyl)pyridazin-3(2H)-one]"
21,100 to 1000 nM,"O=C(CN1CCOCC1c1cc(C(F)(F)F)c(=O)[nH]n1)N1CCN(c2ncc(C(F)(F)F)cn2)CC1 (single isomer, unassigned) [Compound 88a]"
22,100 to 1000 nM,"COC1CC(c2cc(C(F)(F)F)c(=O)[nH]n2)N(CC(=O)N2CCN(c3ncc(C(F)(F)F)cn3)CC2)C1 (single isomer, unassigned) [Compound 138trans1, 6-(4-methoxy-1-(2-oxo-2-(4-(5-(trifluoromethyl)pyrimidin-2-yl)piperazin-1-yl)ethyl)pyrrolidin-2-yl)-4-(trifluoromethyl)pyridazin-3(2H)-one]"
23,10 to 100 nM,"O=C(CN1CCCC1c1cc(C(F)(F)F)c(=O)[nH]n1)N1CCN(c2cc(Cl)c(F)cn2)CC1 (single isomer, unassigned) [Compound 80b]"
24,100 to 1000 nM,"O=C(CN1CC(F)(F)C[C@@H]1c1cc(C(F)(F)F)c(=O)[nH]n1)N1CCN(c2ncc(C(F)(F)F)cn2)CC1 [Compound 91a, (R)-6-(4,4-difluoro-1-(2-oxo-2-(4-(5-(trifluoromethyl)pyrimidin-2-yl)piperazin-1-yl)ethyl)pyrrolidin-2-yl)-4-(trifluoromethyl)pyridazin-3(2H)-one]"
25,100 to 1000 nM,"O=C(CN1CCCC1c1cc(C(F)(F)F)c(=O)[nH]n1)N1CCN(c2ncc(Cl)cc2Cl)CC1 (single isomer, unassigned) [Compound 125a]"
26,10 to 100 nM,"O=C(CN1CCN(c2ncc(C(F)(F)F)cn2)CC1)N1CCCC1c1c[nH]c(=O)c(C(F)(F)F)c1 (single isomer, unassigned) [Compound 63a]"
27,≤ 10 nM,O=C(CN1CCCC1c1cc(C(F)(F)F)c(=O)[nH]n1)N1CCN(c2ncc(C(F)(F)F)s2)CC1 (racemic) [Compound 52rac]
